ChEMBL document CHEMBL3507680, “University of Dundee, Gates Library screen for HepG2 cell viability”

Assay: Human HepG2 cell viability assay in 384 well format
Format: toxicity, cell-based
Parameters: dose 125 nL, time 70.5 hour; cytotoxicity at 70.5 h: concentration not given beside the values
Settings: HepG2 cells, read-out: Inhibition

Structure (SMILES) | cytotoxicity at 70.5 h
COC(=O)CN1CCCN(C(=O)CCOc2cccc(C)c2C)CC1 | -5.13%
Cc1noc(C)c1CNCC1Cn2nncc2CO1 (configuration not stated) | -2.84%
COc1cccc2c1ccn2CCC(=O)Nc1c2c(nn1C)CSC2 | -11.9%
Oc1ccc([C@H]2Oc3cc(O)cc(O)c3C[C@@H]2O)cc1 | -11.9%
CN(C)c1cc(CNC(=O)CC2CCCCC2)ccn1 | -5.82%
O=S(=O)(c1ccc(F)cc1)n1cc(Cl)cn1 | -10.6%
CCc1nc2n(n1)CC(NCc1nc3ccccc3nc1C)CC2 (configuration not stated) | 1.64%
Cc1cccc(N2CCCC2c2nc(C)ncc2CN(C)C)n1 (configuration not stated) | -4.92%
COc1ccc2c(=O)n(CC3CCCCN3C)ccc2c1OC (configuration not stated) | -4.5%
CC(C)(C)c1n[nH]cc1CNC1CCC(O)CC1 (configuration not stated) | -19.6%
CCN1CCC2(COCc3c(C)nc(N4CCOCC4)nc32)C1 (configuration not stated) | 11.1%
Cc1ncc(-c2ccnc(SCCN(C)C)n2)c(-c2ccco2)n1 | 20.1%
Cc1cc(CNC(=O)Nc2cccc(COCCOC(C)C)c2)no1 | -0.772%
CNC(=O)C1CN(c2ccnc(C)n2)CCN1Cc1ccccc1 (configuration not stated) | -3.79%
O=C(NC1CC1)c1cccc(S(=O)(=O)NCCc2nc(C3CC3)no2)c1 | -6.39%
CCN1CC2(CCC1=O)CCN(Cc1cc(F)ccc1Cl)CC2 | -0.396%
Cn1cccc1-c1cc(C(=O)N2CCCC2c2cccnc2)[nH]n1 (configuration not stated) | -4.46%
CCn1cnnc1CNC(=O)N1CCOC(c2ccccc2Cl)C1 (configuration not stated) | -3.84%
O=C(CCN1CCCC1)Nc1c2c(cc3c1CCC3)CCC2 | -0.353%
Cc1c(CCC(=O)Nc2ccc(Cl)cn2)cnn1C | -1.57%
COc1ccc(CN2CCC(C(N)=O)C2)c(Br)c1OC (configuration not stated) | 0.0817%
CC(NC(=O)c1cc(N2CCNC2=O)ccc1F)c1ccc(F)cc1 (configuration not stated) | -4.65%
F[C@@H]1CN(CC2CC2)C[C@@H]1OCc1nc2ccccc2[nH]1 | 14.4%
COC(=O)N1CCC(NC(=O)N2CCCC2c2ccsc2)CC1 (configuration not stated) | -4.05%

Structure (SMILES) | cytotoxicity at 70.5 h
O=C(C1SCCc2ccccc21)N1CCC(O)CC1 (configuration not stated) | -7.52%
O=C1CO[C@@H]2CN(CC3CC3)C[C@H]2N1Cc1cccc(F)c1 | 14.4%
CC(NC(=O)NCCCN(C)S(C)(=O)=O)c1ccncc1 (configuration not stated) | -3.33%
CCc1nc(C)c(C(=O)NCCNc2ncnc3sccc23)s1 | 4.06%
Cc1cnn(CC2CCCCN2Cc2cnc(C)s2)c1 (configuration not stated) | -12.5%
OC1CCN(c2ccccc2NCc2nc(-c3cccs3)no2)CC1 | -10.7%
O=S(=O)(CC1CCCCC1)NCc1ccc(O)nc1 | -10.2%
O=C(CCC(=O)N1CCc2[nH]c3ccccc3c2C1)NCc1ccco1 | -8.42%
COCc1noc(Cc2c(C)nn(C)c2C)n1 | -2.81%
O=C(NCc1ccccc1CO)Nc1ccc2c(c1)CCO2 | 7.29%
O=C(CN1CCC(c2ccnn2CCO)CC1)NC1CCCC1 | -3.63%
CCc1cccc(N2CCC(NC(=O)C3CCOCC3)CC2)c1 | -5.26%
Cc1cccc(C)c1OCC(=O)NS(=O)(=O)c1c(C)noc1C | -14.4%
Cc1cnc(NC(=O)NCCOc2ncccc2Cl)s1 | -4.99%
CCC(O)CN1CCN(C(=O)c2ccc(Cn3cccc3)cc2)CC1 (configuration not stated) | -11.6%
CC(NCC1CCN(CCO)CC1)c1ccc(C(F)(F)F)cc1 (configuration not stated) | 14%
COCCOc1ncccc1C(=O)N1CCCn2ncnc21 | -5.4%
Cc1nc(Nc2ccccn2)cc(C2CCCN2C2CCOCC2)n1 (configuration not stated) | -10.7%
CC(=O)N1CCCC1c1cccc(Cc2ccccc2F)n1 (configuration not stated) | 35.5%
CC(=O)c1c(N(C)C)ccnc1C(F)(F)F | -6.51%
Cc1nccnc1C1CCN(C2CCCC2O)CC1 (configuration not stated) | -0.726%
O=C(NC1CC1)[C@@H]1CCO[C@@H]2CCN(CCc3ccccc3)C[C@@H]21 | -6.53%
CC(C)NC(=O)CNC(=O)C12CCC(=O)N1c1cc(Cl)ccc1S2 (configuration not stated) | -0.426%
